For three molecules, melting point results are on record in US20020086893A1, “Medicament” (SmithKline Beecham p.l.c., priority 1990, published 2002).

By melting point is commonly meant the temperature, or range, at which the solid turns liquid.

Structures can show the parent of a compound that is named as a salt.

As to `CCCCc1ncc(CC(Cc2ccccc2)C(=O)O)n1Cc1ccccc1Cl` (stereo not drawn) (as salt: hydrochloride) [Example 2, 3-[2-n-Butyl-1-{(2-chlorophenyl)methyl}-1H-imidazol-5-yl]-2-benzylpropanoic Acid], the melting point was in the range of 118 to 120 °C.

Take `CCCSc1ncc(C[C@H](NC(=O)CCC)C(=O)O)n1Cc1ccccc1Cl` [Example 1, 3-[(2-Chlorophenyl)methyl]-2-propylthio-N-butyrylhistidine]: the melting point lay within 178 to 181 °C. As for `CCCCc1nc2cc(Br)cc(C(=O)O)c2n1Cc1ccccc1Cl` [Example 4, 5-Bromo-2-n-butyl-1-(2-chlorophenyl)methyl-1H-benzimidazole-7-carboxylic Acid], the melting point was 254 to 255 °C.
